The results in this text go back to patent publication US11691951B2 (Curtana Pharmaceuticals, Inc., priority 2015, dated 2023).

In the test the test system is GBM8 cells (human glioblastoma neurosphere cell culture). The test can be described thus: GBM8 viability assay (Cell Titer Glo luminescence, 3 days). The class given is cell-based. The following applies: 72 h, 3 days incubation. The protocol: Example 283: GBM4 and GBM8 Viability Assay
Cell culture medium was prepared from a NSA proliferation kit (Neurocult) and NeuroCult supplements (Stemcell Tech Cat. #05751) and treated with 20 μL of 10 μg/mL rh EGF, 10 μL of 10 μg/mL rh bFGF and 10 μL of 0.2% Heparin. In this medium, human glioblastoma cells were cultured in ultra-low attachment tissue culture flasks until 1×10^6 cells ml was achieved (GBM4 and GBM8 are distinct neurosphere cell cultures derived from these human patient tissues). GBM4 and GBM8 cells were dissociated and 10 mL of media containing 4000 human glioblastoma cells per 90 uL were transferred to an ultra-low binding 96-well plate and incubated at 37° C. overnight. On the following day, 10 μL of a 1% DMSO solution of test compound in assay medium was added to wells containing the cell suspension and the mixture incubated at 37° C. for 3 days. At this time, the plate was removed from the incubator and allowed to reach room temperature. After about 30 minutes, 50 μL of Cell Titer Glo solution was added to each well and the plate shaken for 1 minute at low speed. After 10 minutes luminescence was recorded using a Tecan Safire2 reader.
Reduction in luminescence compared to DMSO only control wells was used to determine the percentage inhibition of cell growth. IC50s were calculated using the % inhibition of luminescence for serial dilutions of compounds fitted to a 4-parameter fit within the Prism (San Diego) curve fitting program.
Background: In ATP-based viability assays light output follows the ATP content of the culture.
With `Cc1cc(NCCN(C)C)nc(NC(=O)Nc2ccc(OC(F)(F)F)cc2)n1` [Compound 88], the IC50 is < 1000 nM.

Regarding `Cc1cccc(NC(=O)Nc2nc(C)cc(NCCCN)n2)c1` [Compound 210], the IC50 was < 1000 nM.

In turn, `Cc1cc(NCCOCCO)nc(NC(=O)Nc2ccc(C)c(C)c2)n1` [Compound 260] registered an IC50 of 1000 to 10000 nM.

For `Cc1cc(NCCC(N)=O)nc(NC(=O)Nc2ccc(OC(F)(F)F)cc2)n1` [Compound 93], the IC50 was < 1000 nM.

As for `Cc1cc(NCC(C)O)nc(NC(=O)Nc2ccc(OC(F)(F)F)cc2)n1` (stereo not drawn) [Compound 95], the IC50 was < 1000 nM.

`Cc1cc(NCC2CCCN(C)C2)nc(NC(=O)Nc2ccc(Cl)c(Cl)c2)n1` (stereo not drawn) [Compound 16]: the 50% inhibitory concentration (IC50) was < 1000 nM.

As to `CCNc1cc(C)nc(NC(=O)Nc2ccc(F)c(C(F)(F)F)c2)n1` [Compound 117], the IC50 is < 1000 nM.

With `Cc1cc(NCCCN(C)C)nc(N2CCN(c3ccc(Cl)c(Cl)c3)C2=O)n1` [Compound 36, 3-(3,4-dichlorophenyl)-1-{4-[3-(dimethylamino)propylamino]-6-methyl-2-pyrimidinyl}-2-imidazolidinone], the IC50 is < 1000 nM.

In the case of `Cc1cc(NCCCN(C)C)nc(NC(=O)Nc2ccc(Cl)c(C(F)(F)F)c2)n1` [Compound 47, 1-(2-{3-[4-chloro-3-(trifluoromethyl)phenyl]ureido}-6-methyl-4-pyrimidinylamino)-3-(dimethylamino)propane], the IC50 is < 1000 nM.

As to `Cc1cc(NCCCN(C)C)nc(NC(=O)Nc2cccc(C(F)(F)F)c2)n1` [Compound 180, 1-(4-((3-(dimethylamino)propyl)amino)-6-methylpyrimidin-2-yl)-3-(3-(trifluoromethyl)phenyl)urea], the IC50 is < 1000 nM.

In the case of `COc1ccc(NC(=O)Nc2nc(C)cc(NCCN(C)C)n2)cc1` [Compound 138], the concentration for half-maximal inhibition (IC50) was < 1000 nM.

The molecule `COC(=O)CCNc1cc(C)nc(NC(=O)Nc2cccc(C)c2)n1` [Compound 220] came in with an IC50 of 1000 to 10000 nM.

Turning to `Cc1cc(NCCO)nc(NC(=O)Nc2ccc(Cl)c(C(F)(F)F)c2)n1` [Compound 49], the IC50 is < 1000 nM.

`Cc1cc(NCCN(C)C)nc(NC(=O)Nc2cccc(OC(F)(F)F)c2)n1` [Compound 174] came in with a half-inhibitory concentration (IC50) of 1000 to 10000 nM.

For `Cc1cc(NCC(F)(F)CO)nc(NC(=O)Nc2ccc(Cl)c(C(F)(F)F)c2)n1` [Compound 53], the IC50 is < 1000 nM.

Turning to `Cc1cc(NCCCCO)nc(NC(=O)Nc2cccc(C(F)(F)F)c2)n1` [Compound 181], the IC50 is < 1000 nM.

In the case of `Cc1cc(NCCCN)nc(NC(=O)Nc2ccc(C)c(C)c2)n1` [Compound 253], the IC50 was < 1000 nM.

Turning to `CNCCNc1cc(C)nc(NC(=O)Nc2ccc(F)c(Cl)c2)n1` [Compound 169, 1-(3-chloro-4-fluorophenyl)-3-(4-methyl-6-((2-(methylamino)ethyl)amino)pyrimidin-2-yl)urea], the half-inhibitory concentration (IC50) is < 1000 nM.

As for `Cc1ccc(NC(=O)Nc2nc(C)cc(NCC(O)CO)n2)cc1` (stereo not drawn) [Compound 246], the IC50 is < 1000 nM.

For `CNCCCCNc1cc(C)nc(NC(=O)Nc2cccc(OC)c2)n1` [Compound 154], the 50% inhibitory concentration (IC50) lay in the range of 1000 to 10000 nM.

`Cc1cc(NCCN(C)C)nc(NC(=O)Nc2ccccc2)n1` [Compound 74] came in with an IC50 of 1000 to 10000 nM.

As to `Cc1cc(NCCC(N)=O)nc(NC(=O)Nc2ccc(F)c(C(F)(F)F)c2)n1` [Compound 116], the IC50 is < 1000 nM.

Consider `Cc1cc(NCC(O)CO)nc(NC(=O)Nc2ccc(Cl)c(C(F)(F)F)c2)n1` (stereo not drawn) [Compound 52], for which the IC50 was < 1000 nM.

As for `Cc1cccc(NC(=O)Nc2nc(C)cc(NCCN(C)C)n2)c1` [Compound 215], the IC50 is < 1000 nM.

`Cc1cc(NCCC(N)=O)nc(NC(=O)Nc2ccc(Cl)c(Cl)c2)n1` [Compound 19] had a half-maximal inhibitory concentration (IC50) of 1000 to 10000 nM.

As to `Cc1cc(NCCO)nc(NC(=O)Nc2cccc(C(F)(F)F)c2)n1` [Compound 184], the IC50 is < 1000 nM.

As for `COc1ccc(NC(=O)Nc2nc(C)cc(NCCCNC(C)=O)n2)cc1` [Compound 275, N-(3-((2-(3-(4-methoxyphenyl)ureido)-6-methylpyrimidin-4-yl)amino)propyl)acetamide], the IC50 is < 1000 nM.

Consider `Cc1cc(NCCCO)nc(NC(=O)Nc2ccc(OC(F)(F)F)cc2)n1` [Compound 86, 1-(4-((3-hydroxypropyl)amino)-6-methylpyrimidin-2-yl)-3-(4-(trifluoromethoxy)phenyl)urea], for which the IC50 is < 1000 nM.

In turn, `CNCCCNc1cc(C)nc(NC(=O)Nc2ccc3c(c2)OCO3)n1` [Compound 289, 1-(benzo[d][1,3]dioxol-5-yl)-3-(4-methyl-6-((3-(methylamino)propyl)amino)pyrimidin-2-yl)urea] gave an IC50 of 1000 to 10000 nM.

For the molecule `Cc1cc(NCCN)nc(NC(=O)Nc2ccc3c(c2)OCO3)n1` [Compound 283], the IC50 is < 1000 nM.

On to `Cc1cc(NCC2CCCN(C)C2)nc(NC(=O)Nc2ccc(C)c(C)c2)n1` (stereo not drawn) [Compound 258], for which the IC50 is 1000 to 10000 nM.

Molecule `Cc1cc(NCCN(C)C)nc(NC(=O)Nc2ccc(F)c(Cl)c2)n1` [Compound 159] gave an IC50 of 1000 to 10000 nM.

For the molecule `Cc1cc(NCCCO)nc(NC(=O)Nc2ccccc2)n1` [Compound 70, 1-(4-((3-hydroxypropyl)amino)-6-methylpyrimidin-2-yl)-3-phenylurea], the IC50 fell in the range of 1000 to 10000 nM.

With `Cc1cc(NCCCCO)nc(NC(=O)Nc2ccc(F)c(C(F)(F)F)c2)n1` [Compound 106], the IC50 was < 1000 nM.

With `Cc1cccc(NC(=O)Nc2nc(C)cc(NCC(O)CO)n2)c1` (stereo not drawn) [Compound 223], the IC50 was < 1000 nM.

`Cc1ccc(NC(=O)Nc2nc(C)cc(NCCN(C)C)n2)cc1` [Compound 242] registered an IC50 of 1000 to 10000 nM.

As for `Cc1cc(NCCCCN(C)C)nc(NC(=O)Nc2ccc(Cl)c(Cl)c2)n1` [Compound 17], the IC50 is < 1000 nM.

Take `Cc1cc(NCCN)nc(NC(=O)Nc2ccc(F)c(C(F)(F)F)c2)n1` [Compound 110]: the IC50 is < 1000 nM.

As for `Cc1cc(NCC(C)O)nc(NC(=O)Nc2ccc(F)c(Cl)c2)n1` (stereo not drawn) [Compound 164], the IC50 is < 1000 nM.

For `COc1cccc(NC(=O)Nc2nc(C)cc(NCC3CCCNC3)n2)c1` (stereo not drawn) [Compound 155], the IC50 was in the range of 1000 to 10000 nM.

In the case of `Cc1cccc(NC(=O)Nc2nc(C)cc(NCCCCO)n2)c1` [Compound 212], the half-inhibitory concentration (IC50) was < 1000 nM.

Regarding `Cc1cc(NCCOCCO)nc(NC(=O)Nc2ccc(Cl)c(C(F)(F)F)c2)n1` [Compound 51], the IC50 is < 1000 nM.

On to `CNCCNc1cc(C)nc(NC(=O)Nc2ccc(Cl)c(Cl)c2)n1` [Compound 28], for which the IC50 was < 1000 nM.

Take `CNCCCNc1cc(C)nc(NC(=O)Nc2ccc(F)c(Cl)c2)n1` [Compound 170]: the IC50 was < 1000 nM.

Turning to `Cc1ccc(NC(=O)Nc2nc(C)cc(NCCCN)n2)cc1` [Compound 236], the IC50 is < 1000 nM.

With `CC(=O)NCCCNc1cc(C)nc(NC(=O)Nc2ccc(F)c(Cl)c2)n1` [Compound 278], the IC50 was < 1000 nM.

`Cc1cc(NCCCCN(C)C)nc(NC(=O)Nc2ccc(F)c(C(F)(F)F)c2)n1` [Compound 104]: the IC50 is < 1000 nM.

On to `Cc1cc(NCCCc2cnc[nH]2)nc(NC(=O)Nc2ccc(F)c(C(F)(F)F)c2)n1` [Compound 115], for which the IC50 was < 1000 nM.

On to `CCCNc1cc(C)nc(NC(=O)Nc2ccc(C(F)(F)F)cc2)n1` [Compound 202], for which the IC50 was < 1000 nM.

As to `Cc1cc(NCCCCO)nc(NC(=O)Nc2ccc(Cl)c(Cl)c2)n1` [Compound 13], the concentration for half-maximal inhibition (IC50) was < 1000 nM.

Consider `CC(=O)NCCCNc1cc(C)nc(NC(=O)Nc2ccc(Cl)c(Cl)c2)n1` [Compound 272, N-(3-((2-(3-(3,4-dichlorophenyl)ureido)-6-methylpyrimidin-4-yl)amino)propyl)acetamide], for which the IC50 was in the range of 1000 to 10000 nM.

Turning to `Cc1cc(NCC(O)CO)nc(NC(=O)Nc2ccc(C)c(C)c2)n1` (stereo not drawn) [Compound 264], the IC50 is < 1000 nM.

`Cc1cc(NCCCN(C)C)nc(NC(=O)Nc2ccc(F)c(Cl)c2)n1` [Compound 157, 1-(3-chloro-4-fluorophenyl)-3-(4-((3-(dimethylamino)propyl)amino)-6-methylpyrimidin-2-yl)urea]: the IC50 is < 1000 nM.

As to `Cc1cc(NCCCCO)nc(NC(=O)Nc2cccc(OC(F)(F)F)c2)n1` [Compound 175], the 50% inhibitory concentration (IC50) is < 1000 nM.

For the molecule `CCCNc1cc(C)nc(NC(=O)Nc2ccc(F)c(Cl)c2)n1` [Compound 165], the half-maximal inhibitory concentration (IC50) was < 1000 nM.

In the case of `Cc1ccc(NC(=O)Nc2nc(C)cc(NCCCN(C)C)n2)cc1` [Compound 234, 1-(4-((3-(dimethylamino)propyl)amino)-6-methylpyrimidin-2-yl)-3-(p-tolyl)urea], the IC50 is < 1000 nM.

Regarding `CNCCCNc1cc(C)nc(NC(=O)Nc2cccc(C)c2)n1` [Compound 230], the IC50 was < 1000 nM.

As for `COc1cccc(NC(=O)Nc2nc(C)cc(NCCN(C)C)n2)c1` [Compound 145], the IC50 is 1000 to 10000 nM.

For the molecule `COc1ccc(NC(=O)Nc2nc(C)cc(NCCOCCO)n2)cc1` [Compound 132], the concentration for half-maximal inhibition (IC50) was < 1000 nM.

With `Cc1cc(NCCCN)nc(NC(=O)Nc2ccc(C(C)(C)C)cc2)n1` [Compound 303], the IC50 is < 1000 nM.

As for `Cc1cc(NCCCc2cnc[nH]2)nc(NC(=O)Nc2ccc(Cl)c(C(F)(F)F)c2)n1` [Compound 59], the IC50 is < 1000 nM.

Molecule `Cc1cc(NCCCCN(C)C)nc(NC(=O)Nc2ccccc2)n1` [Compound 76] came in with an IC50 of 1000 to 10000 nM.

With `CCNc1cc(C)nc(NC(=O)Nc2cccc(C)c2)n1` [Compound 224], the 50% inhibitory concentration (IC50) is < 1000 nM.

Broadly, the IC50 is the concentration that inhibits the measured activity by half. A higher IC50 goes with weaker potency in that assay.
